Data: patent publication US20240360114A1 (SIRONAX LTD., priority 2021, published 2024)

test system: HT-1080 cells; experiment: HT-1080 cell viability assay (ferroptosis induced by RSL3, Cell Titer-Glo); format: cell-based; details: Homo sapiens, HT-1080, 20 h, ferroptosis inducer RSL3, 20 hours, ferroptosis inhibitory activity, Table 2
Method: Example 2. Determination of EC50 Values in HT-1080 Cell Viability Assay
HT-1080 (ATCC, CCL-121) cells (6000 in 100 μl) were seeded in 96-well plates (Corning) and cultured in a 37° C. incubator with a humidified atmosphere of 5% CO2 for overnight. Cells were then treated with ferroptosis inducer RSL3 (TargetMol) and a 3-fold, 10-point serial dilution series of compounds with 1.1 μM as the highest concentration, for 20 hours. Cell viability was assessed using the Cell Titer-Glo Kit (Promega). The luminescence intensity was measured with a microplate reader (Envision, PerkinElmer), and cell viability was calculated by normalizing the data to untreated controls. The EC50 values of the compounds (e.g., Compounds 1-573 and 574-661) were calculated in GraphPad Prism (GraphPad Software, Inc., San Diego, CA, USA). The curves were fitted using a non-linear regression model with a sigmoidal dose response.

Compound | EC50
N[C@H]1CCC[C@H]1Nc1ccc(N2CCC(C(F)(F)F)CC2)cc1 [Compound 454, (1R, 2S)-N1-(4-(4-(trifluoromethyl)piperidin-1-yl)phenyl)cyclopentane-1.2-diamine] | 0.1 to 100 nM
Cc1nc(N2CCC(C(F)(F)F)CC2)ccc1NC[C@H]1CC[C@H](NC(=O)C2CNC(=O)C2)CC1 (stereo partly drawn) [Compound 378, N-((1r,4r)-4-(((2-methyl-6-(4-(trifluoromethyl)piperidin-1-yl)pyridin-3-yl)amino)methyl)cyclohexyl)-5-oxopyrrolidine-3-carboxamide] | 0.1 to 100 nM
CC[C@@H]1CN(c2ccc(NC3CC4(CC(N)C4)C3)c(C)n2)C[C@@H](CC)O1 (stereo partly drawn) [Compound 550] | 0.1 to 100 nM
CC1(C)CCC(c2ccc(NC3CCC(CNC(=O)[C@@H]4CNC(=O)N4)CC3)cc2)CC1 (single isomer, unassigned) [Compound 107A] | 0.1 to 100 nM
CC(C)C1CCN(c2ncc(NC3CC(N)C3)cn2)CC1 (stereo not drawn) [Compound 28, N1-(2-(4-isopropylpiperidin-1-yl)pyrimidin-5-yl)cyclobutane-1,3-diamine] | 0.1 to 100 nM
CC(C)C1CCN(c2ncc(NC3CC4(CC(NC(=O)C(N)=O)C4)C3)cn2)CC1 (stereo not drawn) [Compound 403, N1-(6-((2-(4-isopropylpiperidin-1-yl)pyrimidin-5-yl)amino)spiro[3.3]heptan-2-yl)oxalamide] | 0.1 to 100 nM
CCOCCN(CCCCOC)CCNc1ccc(C(C)(C)C)cc1 [Compound 256, N1-(4-(tert-butyl)phenyl)-N2-(2-ethoxyethyl)-N2-(4-methoxybutyl) ethane-1,2-diamine] | 1000 to 10000 nM
Cc1cc(NC[C@H]2CC[C@H](N)CC2)cc(F)c1N1CC(C)OC(C)C1 (stereo partly drawn) [Compound 464, N-(((1r,4r)-4-aminocyclohexyl)methyl)-4-(2,6-dimethylmorpholino)-3-fluoro-5-methylaniline] | 0.1 to 100 nM

Continued, values first:

EC50 | Compound
0.1 to 100 nM | Cc1nc(NCC(F)(F)F)ccc1NC1CC2(CC(N)C2)C1 (stereo not drawn) [Compound 557, N3-(6-aminospiro [3.3]heptan-2-yl)-6-methyl-N2-(2,2,2-trifluoroethyl)pyridine-2,5-diamine]
0.1 to 100 nM | OC1CCCCC1Nc1ccc(N2CCC(C(F)(F)F)CC2)cc1 (stereo not drawn) [Compound 415, 2-((4-(4-(trifluoromethyl)piperidin-1-yl)phenyl)amino)cyclohexan-1-ol]
0.1 to 100 nM | CC1(C)CCC(c2ccc(NC3CCNC(=O)C3)cc2)CC1 (stereo not drawn) [Compound 102, 4-((4-(4,4-dimethylcyclohexyl)phenyl)amino)piperidin-2-one]
0.1 to 100 nM | Cc1cc(NC2CC3(CC(N)C3)C2)c(C)nc1N1CC(C)OC(C)C1 (stereo not drawn) [Compound 476, N2-(6-(2,6-dimethylmorpholino)-2,5-dimethylpyridin-3-yl)spiro[3.3]heptane-2,6-diamine]
0.1 to 100 nM | CC(C)C1CCN(c2ncc(NC3CC4(CC(O)C4)C3)cn2)CC1 (stereo not drawn) [Compound 422, 6-((2-(4-isopropylpiperidin-1-yl)pyrimidin-5-yl)amino)spiro[3.3]heptan-2-ol]
0.1 to 100 nM | NC1CCC(Nc2ccc(N3CCC(C(F)(F)F)CC3)c(OCCO)c2)CC1 (stereo not drawn) [Compound 416, (5-((4-aminocyclohexyl)amino)-2-(4-(trifluoromethyl)piperidin-1-yl)phenoxy) ethan-1-ol]

same assay, conditions: Homo sapiens, HT-1080, 20 h, ferroptosis inducer RSL3, 20 hours, ferroptosis inhibitory activity, Table 3

Compound | EC50
CC1CN(c2ccc(NC3CC(N)C3)cc2F)CC(C)N1CC(F)(F)F (stereo not drawn) [Compound 604, N1-(4-(3,5-dimethyl-4-(2,2,2-trifluoroethyl)piperazin-1-yl)-3-fluorophenyl)cyclobutane-1,3-diamine] | 0.1 to 100 nM
Cc1nc(N(C)CC(F)(F)F)ccc1NC1CC2CCC(C1)N2 (stereo not drawn) [Compound 656, N^5-(8-azabicyclo[3.2.1]octan-3-yl)-N^2,6-dimethyl-N^2-(2,2,2-trifluoroethyl)pyridine-2,5-diamine] | 0.1 to 100 nM

Next, values leading:

EC50 | Compound
0.1 to 100 nM | CC1(C)CN(c2ccc3cc(NC4CC5(CC(N)C5)C4)ccc3n2)CC(C)(C)O1 (stereo not drawn) [Compound 646, N2-(2-(2,2,6,6-tetramethylmorpholino)quinolin-6-yl)spiro[3.3]heptane-2,6-diamine]
0.1 to 100 nM | CN(CC(F)(F)F)c1ccc2cc(NC3CC(N)C3)ccc2c1 (stereo not drawn) [Compound 654]
